Test results reported in patent publication US12115157B2, “3-phenoxyazetidin-1-yl-heteroaryl pyrrolidine derivatives and the use thereof as medicament” (Boehringer Ingelheim International GmbH, priority 2021, dated 2024).

Key:
[1] = tested on: primary human hepatocytes; assay: In vitro metabolite profiling in primary human hepatocytes with or without proadifen; type: in vitro ADME; conditions: for % Parent of drug-related material: incubations in primary human hepatocytes, 1 μM test compound; for Contribution of amide hydrolysis to metabolism (incl. secondary metabolites): abundance of deacetylated metabolites relative to all metabolites
Procedure: In vitro metabolite profiling to evaluate the involvement of non-CYP-enzyme-mediated metabolic pathways such as hydrolysis in addition to CYP-mediated pathways is based on the semiquantitative analysis of the formation of prototypic metabolites in incubations with liver microsomes (with and without beta-nicotinamide adenine dinucleotide phosphate, NADPH), primary human hepatocytes (with and without the pan-CYP inhibitor proadifen) and recombinant CYP enzymes.
An additional measure to identify CYP-independent metabolic pathways is the use of the pan-CYP inhibitor proadifen in incubations of the test compound with human hepatocytes. In presence of proadifen, the CYP-related pathways are inhibited and metabolites would primarily be generated via non-CYP pathways.
The involvement of non-CYP-enzymes in metabolic transformations of the test compound was further investigated using primary human hepatocytes in suspension in presence or absence of the pan-CYP inhibitor proadifen (50 μM final incubation concentration). After recovery from cryopreservation, human hepatocytes were incubated in Dulbecco's modified eagle medium supplemented with 3.5 μg glucagon/500 ml, 2.5 mg insulin/500 ml and 3.75 mg/500 ml hydrocortisone containing 5% (v/v) human serum.
Following a 30 min preincubation in a cell culture incubator (37° C., 10% CO2) with or without 50 μM proadifen, test compound solution was spiked into the hepatocyte suspension to obtain a final cell density of 1.0*10^6 to 4.0*10^6 cells/ml (depending on the metabolic turnover rate of the compound observed with primary human hepatocytes), a final test compound concentration of 1 μM, and a final DMSO concentration of 0.05% (v/v).
The cells were incubated for six hours (incubator, horizontal shaker) and samples were removed from the incubation after 0, 0.5, 1, 2, 4 or 6 hours, depending on the metabolic turnover rate. Samples were quenched with acetonitrile and pelleted by centrifugation. The supernatant was transferred to a 96-deepwell plate, evaporated under nitrogen, and resuspended prior to bioanalysis by liquid chromatography-high resolution mass spectrometry for identification of putative metabolites.
The contribution of hydrolysis was calculated based on the abundance of the respective deacetylated metabolite(s) of the compounds of the present invention relative to all metabolites observed in incubations with human hepatocytes.

human plasma proteins = assay: Human plasma protein binding assay (equilibrium dialysis); type: in vitro ADME; conditions: 1 μM, 2 hours, 37° C.
Procedure: Equilibrium dialysis (ED) technique was used to determine the approximate in vitro fractional binding of test compounds to plasma proteins. Dianorm Teflon dialysis cells (micro 0.2) were used. Each dialysis cell consists of a donor and an acceptor chamber, separated by an ultrathin semipermeable membrane with a 5 kDa molecular weight cut-off. Stock solutions for each test compound were prepared in DMSO at 1 mM and serially diluted to obtain a final test concentration of 1 μM. The subsequent dialysis solutions were prepared in plasma (supplemented with NaEDTA as anticoagulant), and aliquots of 200 μL test compound dialysis solution in plasma were dispensed into the donor (plasma) chambers. Aliquots of 200 μL dialysis buffer (100 mM potassium phosphate, pH 7.4) were dispensed into the buffer (acceptor) chamber. Incubation was carried out for 2 hours under rotation at 37° C. for establishing equilibrium.
At the end of the dialysis period, aliquots obtained from donor and acceptor chambers, respectively, were transferred into reaction tubes, spiked with Internal Standard solution and processed for HPLC-MS/MS analysis. Analyte concentrations were quantified in aliquots of samples by HPLC-MS/MS against external calibration curves.
Percent bound was calculated using the formula: % bound=(plasma concentration−buffer concentration/plasma concentration)×100

hERG channel = hERG channel (Homo sapiens (Human), UniProt Q12809); assay: hERG channel assay (whole-cell patch clamp); type: cell-based; conditions: HEK293 cells stably transfected with hERG cDNA
Sequence of hERG channel (Q12809 whole entry): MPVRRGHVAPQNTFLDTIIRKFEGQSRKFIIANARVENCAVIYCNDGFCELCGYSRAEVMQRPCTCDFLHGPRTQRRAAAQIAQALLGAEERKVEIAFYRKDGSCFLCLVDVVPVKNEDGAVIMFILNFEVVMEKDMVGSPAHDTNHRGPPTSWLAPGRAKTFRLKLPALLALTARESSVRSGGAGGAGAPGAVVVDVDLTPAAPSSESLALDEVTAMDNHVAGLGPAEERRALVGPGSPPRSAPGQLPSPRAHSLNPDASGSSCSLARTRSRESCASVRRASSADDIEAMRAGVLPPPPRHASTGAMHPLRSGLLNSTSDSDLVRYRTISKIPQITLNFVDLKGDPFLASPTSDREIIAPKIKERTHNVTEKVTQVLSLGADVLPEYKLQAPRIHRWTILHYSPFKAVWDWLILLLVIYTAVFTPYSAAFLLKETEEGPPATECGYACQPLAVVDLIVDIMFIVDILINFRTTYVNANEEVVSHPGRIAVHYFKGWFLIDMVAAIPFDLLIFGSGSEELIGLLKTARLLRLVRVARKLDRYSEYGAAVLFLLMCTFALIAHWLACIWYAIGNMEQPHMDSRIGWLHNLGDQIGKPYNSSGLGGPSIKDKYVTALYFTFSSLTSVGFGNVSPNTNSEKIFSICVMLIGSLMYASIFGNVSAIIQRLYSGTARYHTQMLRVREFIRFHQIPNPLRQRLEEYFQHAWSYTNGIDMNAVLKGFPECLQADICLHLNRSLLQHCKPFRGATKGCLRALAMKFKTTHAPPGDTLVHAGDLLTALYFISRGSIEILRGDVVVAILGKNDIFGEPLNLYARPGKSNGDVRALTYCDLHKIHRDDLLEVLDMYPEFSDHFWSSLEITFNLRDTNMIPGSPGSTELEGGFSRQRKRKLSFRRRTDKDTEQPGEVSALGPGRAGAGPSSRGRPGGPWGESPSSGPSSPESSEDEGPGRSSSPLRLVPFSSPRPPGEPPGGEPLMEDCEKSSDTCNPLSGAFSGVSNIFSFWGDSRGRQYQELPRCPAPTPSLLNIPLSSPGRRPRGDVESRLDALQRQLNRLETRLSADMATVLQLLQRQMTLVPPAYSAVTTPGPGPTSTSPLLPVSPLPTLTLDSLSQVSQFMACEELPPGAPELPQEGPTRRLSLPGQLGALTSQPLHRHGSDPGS
From the text: hERG Channel inhibition of compounds of the present invention was investigated as follows:
HEK (human embryonic kidney) 293 cells were stably transfected with hERG cDNA. Cells determined for use in patch clamp experiments were cultivated without antibiotic.
Cells were superfused with a bath solution containing (mM): NaCl (137), KCl (4.0), MgCl2 (1.0), CaCl2(1.8), Glucose (10), HEPES (10), pH 7.4 with NaOH. Patch pipettes were made from borosilicate glass tubing using a pipette and filled with pipette solution containing (mM): K-aspartate (130), MgCl2(5.0), EGTA (5.0), K2ATP (4.0), HEPES (10.0), pH 7.2 with KOH. Resistance of the microelectrodes was typically in the range between 2 MΩ and 5 MΩ.
Membrane currents were recorded using an EPC-10 patch clamp amplifier (HEKA Electronics, Lambrecht, FRG) and PatchMaster software (HEKA). hERG-mediated membrane currents were recorded at typically 28° C., using the whole-cell configuration of the patch-clamp technique. Transfected HEK293 cells were clamped at a holding potential of −60 mV and hERG-mediated inactivating tail currents were elicited using a pulse pattern with fixed amplitudes (activation/inactivation: 40 mV for 2000 ms; recovery: 120 mV for 2 ms; ramp to 40 mV in 2 ms; inactivating tail current: 40 mV for 50 ms) repeated at 15 s intervals. During each inter-pulse interval 4 pulses scaled down by a factor of 0.2 were recorded for a P/n leak subtraction procedure. Rs compensation was employed up to a level that safely allows recording devoid of ringing. The remaining uncompensated Rs was recorded as well as actual temperature and holding current.
The concentrations of the test item were applied sequentially on each of the different cells investigated. A steady state level of baseline current was measured for at least 5 sweeps prior to the application of the first test article concentration. The test item was dissolved in DMSO to yield a stock solution of 1000-fold the highest final concentration. This stock was diluted further in DMSO to stock solutions of 1000-fold the remaining final concentrations. Final dilutions in extracellular buffer were prepared freshly from these stocks by a 1:1000 dilution step each before starting the experiments.
Peak current amplitudes were measured 3 ms after the ramp to +40 mV. For baseline and each concentration, the peak currents of the three last sweeps before application of the next concentration were averaged. Residual currents (I/I0) were calculated for each cell as the fraction of actual average peak current and average baseline peak current. Current inhibition was expressed as […]. Current inhibition for all cells was reported as mean ±SD. If possible, from mean current inhibition data the IC50 was estimated based on the Hill equation using a least squares procedure.

Row | SMILES | % Inhibition by 50 μM proadifen ([1]; formation of secondary metabolite m443 (of m429), primary human hepatocytes) | % Parent of drug-related material [1] | Contribution of amide hydrolysis to metabolism (incl. secondary metabolites) ([1]; primary human hepatocytes) | Hu PPB (human plasma proteins) | IC50 (hERG channel)
1 | CC(=O)N1C[C@H](NC(=O)c2nccnc2N2CC(Oc3cc(F)c(F)c(F)c3)C2)C(F)(F)C1 [Example 11b] | 82^6 % untreated control | 82% | 49% | 84.4 % bound | > 10 µM
2 | CC(=O)N1C[C@H](NC(=O)c2nccnc2N2CC(Oc3cc(F)cc(F)c3)C2)C(F)(F)C1 [Example 10a] | – | 86% | 51% | 82.4 % bound | > 10 µM
3 | CC(=O)N1CC[C@@H](NC(=O)c2nsnc2N2CC(Oc3cc(F)cc(F)c3)C2)C1 [Example 15a] | – | 92% | 6% | 90.2 % bound | > 10 µM
